According to patent publication US20220306585A1, “PYRAZOLE DERIVATIVES FOR CONTROLLING ARTHROPODS” (Bayer Animal Health GmbH, priority 2019, published 2022):
≈ marks a conversion by molar mass, not a printed value.

How the values were obtained:
[1] = Evaluation of pharmacokinetics in vivo (rat); conditions: concentration of Parent Drug A after admin. of the named substance
Experimental: Evaluation of Pharmacokinetics (In Vivo) To evaluate the pharmacokinetics of test substances in vivo, these test substances are dissolved in appropriate formulation vehicles (ethanol, dimethyl sulfoxide, PEG400, glycerol formal etc.), or mixtures thereof. The test substances are then administered to rats or dogs intravenously, orally or subcutaneously. The intravenous application is performed as bolus. Administered doses range usually between 0.1 to 5 mg/kg, however, doses for subcutaneous and oral administration can exceed this range up to doses of 30 mg/kg. Blood samples are retrieved via a catheter, exsanguination or venous puncture in vials containing appropriate anticoagulants, such as lithium heparinate or potassium EDTA. Plasma is generated from the blood via centrifugation. Blood samples are taken over an appropriate time interval, usually lasting up to 144 h after administration. If necessary, samples from later time points can also be taken. If possible, time points are chosen so that the initial absorption phase, the maximum plasma concentration (Cmax), and exposure within a certain time interval (AUC(0-t))aer described. Furthermore, it is possible to also retrieve organ-, tissue- and urine samples. The quantitative measurement of the test substances in the samples is performed using calibration curves in the respective matrices. The protein content of the samples is precipitated using acetonitrile or methanol. Thereafter, the samples are separated using HPLC in combination with reversed phase chromatography columns. The HPLC system is coupled to a triple quadrupole mass spectrometer via an electrospray interface. The evaluation of the plasma concentration/time profiles are afterwards evaluated using a validated pharmacokinetics evaluation program. […] Relative bioavailability (Frel) was used to describe the exposure of parent drug after prodrug administration compared to the exposure of parent drug after direct administration of compound A which was normalised to 100%.

[2] = test system: Ctenocephalides felis adult; experiment: Antiparasitic activity after administration to rats: fleas; type: in vivo; conditions: 11.97 mg/kg sc, Ctenocephalides felis adult
Experimental: Measurement of the Antiparasitic Activity after Administration of a Prodrug to Rats Compounds were dissolved in the appropriate volume of glycerol formal (p.a.) just before application to the animals (dose volume was adjusted to 0.03 mL/kg bodyweight). 5 rats per group were either injected intraperitoneally or subcutaneously. Rats were infested with 30 Dermacentor variabilis nymphs on study days −2, 7, 14, 21, 28, 35 and 30 adult Ctenocephalides fleas on study days −1, 8, 15, 22, 29, 36. Parasite counts were performed on study days 2, 9, 16, 23, 30, 37. Percent efficacy was calculated as arithmetic mean parasite numbers as life attached tick numbers and live flea numbers of the respective study group in comparison to parasite counts on a placebo-treated control group. Infestation of groups with less than 75% efficacy on two consecutive counting occasions will terminated for the respective parasite.

[3] = Measurement of solubility in buffer at pH 6.5; type: physicochemical; conditions: aqueous buffer, kinetic from dmso stock; PBS buffer pH 6.5, shaken 24 h at rt, LC-MSMS; read-out: Solubility of example compounds at pH 6.5
How it was run: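 DMSO stock (50 g/L) diluted into PBS pH 6.5, nominal final […], shaken 24 h at rt. After centrifugation, supernatant concentration quantified by LC-MSMS against a 1.2–600 ng/mL calibration curve.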

[4] = Degradation of prodrugs and release of parent drug in rat plasma; type: in vitro ADME; conditions: male, Hannover-Janvier RjHan, rat plasma (Li-heparin), 37° C., percent area of prodrug at t0
How it was run: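 Prodrug spiked into male Hannover rat Li-heparin plasma at 37 °C. Samples at 0.17–4 h quenched in acetonitrile/citric acid pH 3, then analysed by HPLC, with HPLC-MS at final time point. Prodrug loss and parent drug appearance given as percent area of prodrug at t0.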

[5] = Degradation of prodrugs and release of parent drug in dog plasma; type: in vitro ADME; conditions: male, Beagle, dog plasma (EDTA stabilized), 37° C., percent area of prodrug at t0
Experimental: Measurement of Release of Parent Drug in Dog Plasma 1 mg of the test compound was dissolved in 0.5 mL acetonitrile/dimethylsulfoxide 9:1. For complete dissolution the HPLC vial was shaken and treated with ultrasound. 20 μL of this solution were added to 1 mL of dog plasma (Beagle, male; EDTA stabilized) under vortexing at a temperature of 37° C. Aliquots (100 μL each) were taken at 0.17, 0.5, 1, 1.5, 2 and 4 hours. Each aliquot was transferred to a vial containing 300 μL of acetonitrile/citric acid buffer pH 3 80:20. These solutions were centrifuged at 5000 rpm for 10 minutes. The supernatant was analysed by HPLC (Method 8) to determine the amount of the test compound. In addition, the reaction mixture was analysed by method 9 (HPLC-MS) at the final timepoint. Both decrease of the prodrug concentration and increase of parent drug concentration were monitored. All data is given as percent area of the prodrug at t0.

AUC(0-144 h)norm of parent drug A ([1]; iv bolus): 7.3 kg·h/L | AUC(0-144 h)norm of parent drug A ([1]; sc): 5.9 kg·h/L | solubility at 24 h [3]: 18 µg/mL (≈ 23.2 µM) | recovery at 0.17 h, 39 µg/mL ([4]; 0.17 h): 96% | recovery at 0.5 h, 39 µg/mL ([4]; 0.5 h): 85% | recovery at 1 h, 39 µg/mL ([4]; 1 h): 63% | recovery at 1.5 h, 39 µg/mL ([4]; 1.5 h): 49% | recovery at 2 h, 39 µg/mL ([4]; 2 h): 35% | recovery at 4 h, 39 µg/mL ([4]; 4 h): 14% | recovery at 0.17 h, 39 µg/mL ([5]; 0.17 h): 95% | recovery at 0.5 h, 39 µg/mL ([5]; 0.5 h): 79% | recovery at 1 h, 39 µg/mL ([5]; 1 h): 51% | recovery at 1.5 h, 39 µg/mL ([5]; 1.5 h): 33% | recovery at 2 h, 39 µg/mL ([5]; 2 h): 18% | recovery at 4 h, 39 µg/mL ([5]; 4 h): 0%
SMILES: N#CC1(N(COC(=O)/C=C/C(=O)O)C(=O)c2cc(-c3cnn(-c4c(Cl)cc(C(F)(C(F)(F)F)C(F)(F)F)cc4OC(F)(F)F)c3)ccc2Cl)CC1 [Example 13, (2E)-4-{[(2-Chloro-5-{1-[2-chloro-4-(1,1,1,2,3,3,3-heptafluoropropan-2-yl)-6-(trifluoromethoxy)phenyl]-1H-pyrazol-4-yl}benzoyl)(1-cyanocyclopropyl)amino]methoxy}-4-oxobut-2-enoic acid]
In-vivo Efficacy SD2 ([2]; study day 2): 100% | In-vivo Efficacy SD9 ([2]; study day 9): 97% | In-vivo Efficacy SD16 ([2]; study day 16): 96% | In-vivo Efficacy SD23 ([2]; study day 23): 79% | In-vivo Efficacy SD30 ([2]; study day 30): 57% | In-vivo Efficacy SD37 ([2]; study day 37): 51%
